Laboratory results published in PubChem BioAssay (NCI).
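Protocol summary: plate cells (96-well), add compound at 5 concentrations, incubate 48 h, interpolate endpoints linearly. TGI denotes the concentration required for complete inhibition of growth.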

What was measured:
Assay in all cases: inhibition of tumour cell growth, NCI panel, 48 h
HOP-18 NSCLC = system: HOP-18 NSCLC
CAKI-1 renal = system: CAKI-1 renal
HCT-15 colon = system: HCT-15 colon
SNB-19 CNS = system: SNB-19 CNS
SK-MEL-5 melanoma = system: SK-MEL-5 melanoma
KM12 colon = system: KM12 colon
SW-620 colon = system: SW-620 colon
OVCAR-8 ovarian = system: OVCAR-8 ovarian
CCRF-CEM leukemia = system: CCRF-CEM leukemia
SF-268 CNS = system: SF-268 CNS

| Compound | TGI (HOP-18 NSCLC) [µM] | TGI (CAKI-1 renal) [µM] | TGI (HCT-15 colon) [µM] | TGI (SNB-19 CNS) [µM] | TGI (SK-MEL-5 melanoma) [µM] | TGI (KM12 colon) [µM] | TGI (SW-620 colon) [µM] | TGI (OVCAR-8 ovarian) [µM] | TGI (CCRF-CEM leukemia) [µM] | TGI (SF-268 CNS) [µM] |
| --- | --- | --- | --- | --- | --- | --- | --- | --- | --- | --- |
| FC(F)(F)P1C2C=CC(CC2)C1(F)F (stereo not given) | > 100 | > 100 | > 100 | > 100 | > 100 | > 100 | > 100 | > 100 | > 100 | > 100 |
| CNC(=O)OCc1nc(SC(C)C)n(C)c1COC(=O)NC | > 100 | > 100 | > 100 | > 100 | > 100 | > 100 | > 100 | > 100 | > 88 | > 100 |
| COc1c(OC(C)=O)ccc(/C=C2\N=C(C)OC2=O)c1[N+](=O)[O-] | > 100 | > 100 | > 100 | > 100 | > 100 | > 100 | > 100 | > 100 | > 100 | > 100 |
| CCCCN(CCCC)C(=O)C(=O)CC(=O)c1ccc(Br)cc1 | > 100 | > 100 | > 100 | > 100 | > 100 | > 100 | > 100 | > 100 | > 100 | > 100 |
| O/N=C1/C(=C/c2ccc(F)cc2)CCCC1C(NO)c1ccc(F)cc1 (stereo not given) | 87.3 | > 100 | > 100 | > 100 | 39.2 | 52.6 | > 100 | > 100 | > 100 | > 100 |
| CCOC(=O)/C(C1=N[C@H](C(=O)OCC)CS1)=C(\C)O | > 100 | > 100 | > 100 | > 100 | > 100 | > 100 | > 100 | > 100 | > 100 | > 100 |
| O=C(O)CN(c1ccc(Cl)cc1)S(=O)(=O)c1ccccc1 | > 100 | > 100 | > 100 | > 100 | > 100 | > 100 | > 100 | > 100 | > 100 | > 100 |
| CC1=C(C(=O)Nc2ccccc2)C(c2ccc3c(c2)OCO3)C(C(=O)Nc2ccccc2)=C(C)N1 | > 100 | > 100 | > 100 | > 100 | > 100 | > 100 | 12.3 | > 100 | 41 | > 100 |
| N[C@H]1C2C3CC4C5CC(C42)C1(c1ccccc1)C53 (stereo not given in full) | > 100 | > 100 | > 100 | > 100 | > 100 | > 100 | > 100 | > 100 | > 100 | > 100 |
| NC(N)=NS(=O)(=O)c1ccc(NC(=O)c2cccc3c(Nc4ccc(S(=O)(=O)N=C(N)N)cc4)c4ccc(Cl)cc4nc23)cc1 | > 100 | > 100 | > 100 | > 100 | > 100 | > 100 | > 100 | > 100 | > 100 | > 100 |
| NNC(=O)/C(=C/c1cccc([N+](=O)[O-])c1)NC(=O)c1ccccc1 | > 100 | > 100 | > 100 | > 100 | > 100 | > 100 | > 100 | > 100 | > 100 | > 100 |
| Cc1c(NC(=O)C(=O)N=NC(=O)c2ccncc2)c(O)c2ccccc2c1O | 22.3 | 57 | 26.9 | 48.3 | 5.8 | > 100 | 33 | 52.1 | > 87 | 60.5 |
